Experimental data from patent US20260258038A1 (priority 2023, published 2026).

Legend:
[1] = system: Pythium ultimum; assay: Pythium ultimum / liquid culture (seedling damping off); format: cell-based; details: Globisporangium ultimum, liquid culture in PDB, 24° C., 2-3 days after application, read-out: control of Pythium ultimum (inhibition of growth, photometric)
Protocol: Pythium ultimum/Liquid Culture (Seedling Damping Off)
Mycelia fragments and oospores of a newly grown liquid culture of the fungus are directly mixed into nutrient broth (PDB potato dextrose broth). After placing a (DMSO) solution of test compound into a microtiter plate (96-well format), the nutrient broth containing the fungal mycelia/spore mixture is added. The test plates are incubated at 24° C. and the inhibition of growth is determined photometrically 2-3 days after application.

[2] = system: Phytophthora infestans; assay: whole plant or invertebrate; format: in vivo; details: in Solanum lycopersicum, foliar, read-out: control of Phytophthora infestans (percent disease control compared to untreated)
[3] = system: Plasmopara viticola; assay: whole plant or invertebrate; format: in vivo; details: foliar, read-out: control of Plasmopara viticola (percent disease control compared to untreated)

| SMILES | inhibition at 20 ppm [1] [%] | pest or weed control at 200 ppm [2] [%] | pest or weed control at 200 ppm [3] [%] |
| --- | --- | --- | --- |
| COC(=O)Nc1ccc(-c2cnc3ccc(N(C)C(=O)c4ccc(C#N)c(C)c4)cn23)cn1 [Compound 17, methyl N-[5-[6-[(4-cyano-3-methyl-benzoyl)-methyl-amino]imidazo[1,2-a]pyridin-3-yl]-2-pyridyl]carbamate] | ≥ 80 |  |  |
| COC(=O)Nc1ccc(-c2cnc3c(C)cc(N(C)C(=O)c4ccc(C#N)c(F)c4)cn23)cn1 [Compound 4, methyl N-[5-[6-[(4-cyano-3-fluoro-benzoyl)-methyl-amino]-8-methyl-imidazo[1,2-a]pyridin-3-yl]-2-pyridyl]carbamate] | ≥ 80 |  |  |
| COC(=O)Nc1ccc(-c2cnc3c(NC(C)=O)cc(N(C)C(=O)c4ccc(F)c(OC)c4)cn23)cn1 [Compound 59, methyl N-[5-[8-acetamido-6-[(4-fluoro-3-methoxy-benzoyl)-methyl-amino]imidazo[1,2-a]pyridin-3-yl]-2-pyridyl]carbamate] | ≥ 80 | ≥ 80 |  |
| COCCN(C(=O)c1ccc(F)c(OC)c1)c1ccc2ncc(-c3ccc(NC(=O)OC)nc3)n2c1 [Compound 14, methyl N-[5-[6-[(4-fluoro-3-methoxy-benzoyl)-(2-methoxyethyl)amino]imidazo[1,2-a]pyridin-3-yl]-2-pyridyl]carbamate] | ≥ 80 |  |  |
| COC(=O)Nc1ccc(-c2cnc3c(C)cc(N(C)C(=O)c4ccc(Cl)cc4)cn23)cn1 [Compound 49, methyl N-[5-[6-[(4-chlorobenzoyl)-methyl-amino]-8-methyl-imidazo[1,2-a]pyridin-3-yl]-2-pyridyl]carbamate] | ≥ 80 | ≥ 80 | ≥ 80 |
| CCOc1cc(C(=O)N(C)c2ccc3ncc(-c4ccc(NC(=O)OC)nc4)n3c2)ccc1F [Compound 23, methyl N-[5-[6-[(3-ethoxy-4-fluoro-benzoyl)-methyl-amino]imidazo[1,2-a]pyridin-3-yl]-2-pyridyl]carbamate] | ≥ 80 | ≥ 80 |  |
| COC(=O)Nc1ccc(-c2cnc3c(C)cc(N(C)C(=O)c4ccnc(OC)c4)cn23)cn1 [Compound 3, methyl N-[5-[6-[(2-methoxypyridine-4-carbonyl)-methyl-amino]-8-methyl-imidazo[1,2-a]pyridin-3-yl]-2-pyridyl]carbamate] | ≥ 80 | ≥ 80 |  |
| COC(=O)Nc1ccc(-c2cnc3c(C)cc(N(C)C(=O)c4ccc(F)cc4F)cn23)cn1 [Compound 54, methyl N-[5-[6-[(2,4-difluorobenzoyl)-methyl-amino]-8-methyl-imidazo[1,2-a]pyridin-3-yl]-2-pyridyl]carbamate] | ≥ 80 | ≥ 80 | ≥ 80 |
| COC(=O)Nc1ccc(-c2cnc3c(C)cc(N(C)C(=O)c4ccc(Cl)c(OC)c4)cn23)cn1 [Compound 1, methyl N-[5-[6-[(4-chloro-3-methoxy-benzoyl)-methyl-amino]-8-methyl-imidazo[1,2-a]pyridin-3-yl]-2-pyridyl]carbamate] | ≥ 80 | ≥ 80 | ≥ 80 |
| COC(=O)Nc1ccc(-c2cnc3c(C#N)cc(N(C)C(=O)c4ccc(F)c(OC)c4)cn23)cn1 [Compound 55, methyl N-[5-[8-cyano-6-[(4-fluoro-3-methoxy-benzoyl)-methyl-amino]imidazo[1,2-a]pyridin-3-yl]-2-pyridyl]carbamate] | ≥ 80 | ≥ 80 | ≥ 80 |
| COC(=O)Nc1ccc(-c2cnc3ccc(N(CCC#N)C(=O)c4ccc(F)c(OC)c4)cn23)cn1 [Compound 62, methyl N-[5-[6-[2-cyanoethyl-(4-fluoro-3-methoxy-benzoyl)amino]imidazo[1,2-a]pyridin-3-yl]-2-pyridyl]carbamate] | ≥ 80 | ≥ 80 |  |
| COC(=O)Nc1ccc(-c2cnc3c(C)cc(N(C)C(=O)c4ccccc4C(=O)OC)cn23)cn1 [Compound 40] |  | ≥ 80 |  |
| COC(=O)Nc1ccc(-c2cnc3c(C)cc(N(C)C(=O)c4ccc(F)c(C)c4)cn23)cn1 [Compound 11, methyl N-[5-[6-[(4-fluoro-3-methyl-benzoyl)-methyl-amino]-8-methyl-imidazo[1,2-a]pyridin-3-yl]-2-pyridyl]carbamate] | ≥ 80 | ≥ 80 | ≥ 80 |
| COCN(C(=O)c1ccc(F)cc1)c1ccc2ncc(-c3ccc(NC(=O)OC)nc3)n2c1 [Compound 24, methyl N-[5-[6-[(4-fluorobenzoyl)-(methoxymethyl)amino]imidazo[1,2-a]pyridin-3-yl]-2-pyridyl]carbamate] | ≥ 80 | ≥ 80 |  |
| CCOc1cc(C(=O)N(C)c2cc(C)c3ncc(-c4ccc(NC(=O)OC)nc4)n3c2)ccc1F [Compound 19, methyl N-[5-[6-[(3-ethoxy-4-fluoro-benzoyl)-methyl-amino]-8-methyl-imidazo[1,2-a]pyridin-3-yl]-2-pyridyl]carbamate] | ≥ 80 | ≥ 80 |  |
| COCN(C(=O)c1ccc(F)c(OC)c1)c1ccc2ncc(-c3ccc(NC(=O)OC)nc3)n2c1 [Compound 25, methyl N-[5-[6-[(4-fluoro-3-methoxy-benzoyl)-(methoxymethyl)amino]imidazo[1,2-a]pyridin-3-yl]-2-pyridyl]carbamate] | ≥ 80 | ≥ 80 | ≥ 80 |
| COC(=O)Nc1ccc(-c2cnc3c(C)cc(N(C)C(=O)c4cccnc4SC)cn23)cn1 [Compound 46, methyl N-[5-[8-methyl-6-[methyl-(2-methylsulfanylpyridine-3-carbonyl)amino]imidazo[1,2-a]pyridin-3-yl]-2-pyridyl]carbamate] |  | ≥ 80 |  |
| COC(=O)Nc1ccc(-c2cnc3c(C)cc(N(C)C(=O)c4cccc(OC)n4)cn23)cn1 [Compound 37, methyl N-[5-[6-[(6-methoxypyridine-2-carbonyl)-methyl-amino]-8-methyl-imidazo[1,2-a]pyridin-3-yl]-2-pyridyl]carbamate] |  | ≥ 80 |  |
| COC(=O)Nc1ccc(-c2cnc3ccc(N(C)C(=O)c4ccc(F)c(C)c4)cn23)cn1 [Compound 21, methyl N-[5-[6-[(4-fluoro-3-methyl-benzoyl)-methyl-amino]imidazo[1,2-a]pyridin-3-yl]-2-pyridyl]carbamate] | ≥ 80 | ≥ 80 |  |
| COC(=O)Nc1ccc(-c2cnc3c(C)cc(N(C)C(=O)c4ccc(Cl)c(C)c4)cn23)cn1 [Compound 41, methyl N-[5-[6-[(4-chloro-3-methyl-benzoyl)-methyl-amino]-8-methyl-imidazo[1,2-a]pyridin-3-yl]-2-pyridyl]carbamate] | ≥ 80 | ≥ 80 | ≥ 80 |
| COC(=O)Nc1ccc(-c2cnc3c(C)cc(N(C)C(=O)c4ccc(C#N)nc4)cn23)cn1 [Compound 51, methyl N-[5-[6-[(6-cyanopyridine-3-carbonyl)-methyl-amino]-8-methyl-imidazo[1,2-a]pyridin-3-yl]-2-pyridyl]carbamate] |  | ≥ 80 |  |
| COC(=O)Nc1ccc(-c2cnc3ccc(N(C)C(=O)c4ccc(Cl)cc4)cn23)cc1 [Compound 27, methyl N-[4-[6-[(4-chlorobenzoyl)-methyl-amino]imidazo[1,2-a]pyridin-3-yl]phenyl]carbamate] | ≥ 80 |  | ≥ 80 |
| COC(=O)Nc1ccc(-c2cnc3ccc(N(C)C(=O)c4ccc(F)c(F)c4)cn23)cn1 [Compound 22, methyl N-[5-[6-[(3,4-difluorobenzoyl)-methyl-amino]imidazo[1,2-a]pyridin-3-yl]-2-pyridyl]carbamate] | ≥ 80 | ≥ 80 |  |
| COC(=O)Nc1ccc(-c2cnc3ccc(N(CC#N)C(=O)c4ccc(F)c(OC)c4)cn23)cn1 [Compound 7, methyl N-[5-[6-[cyanomethyl-(4-fluoro-3-methoxy-benzoyl)amino]imidazo[1,2-a]pyridin-3-yl]-2-pyridyl]carbamate] | ≥ 80 |  |  |
| COC(=O)Nc1ccc(-c2cnc3c(C)cc(N(C)C(=O)c4ccc(C#N)c(C)c4)cn23)cn1 [Compound 2, methyl N-[5-[6-[(4-cyano-3-methyl-benzoyl)-methyl-amino]-8-methyl-imidazo[1,2-a]pyridin-3-yl]-2-pyridyl]carbamate] | ≥ 80 |  |  |
| COC(=O)Nc1ccc(-c2cnc3c(C)cc(N(C)C(=O)c4cnc(F)c(C)c4)cn23)cn1 [Compound 43, methyl N-[5-[6-[(6-fluoro-5-methyl-pyridine-3-carbonyl)-methyl-amino]-8-methyl-imidazo[1,2-a]pyridin-3-yl]-2-pyridyl]carbamate] | ≥ 80 | ≥ 80 |  |
| COC(=O)Nc1ccc(-c2cnc3ccc(N(C)C(=O)c4ccc(C#N)c(F)c4)cn23)cn1 [Compound 15, methyl N-[5-[6-[(4-cyano-3-fluoro-benzoyl)-methyl-amino]imidazo[1,2-a]pyridin-3-yl]-2-pyridyl]carbamate] | ≥ 80 |  |  |
| COC(=O)Nc1ccc(-c2cnc3ccc(N(CC#N)C(=O)c4ccc(F)cc4)cn23)cn1 [Compound 6, methyl N-[5-[6-[cyanomethyl-(4-fluorobenzoyl)amino]imidazo[1,2-a]pyridin-3-yl]-2-pyridyl]carbamate] | ≥ 80 |  |  |
